From the supplement of paper PMC11451515

Assays:
Conditions in all cases: 48 h
[1] = tested on: NOMO1; assay: AUC of viability dose-response curve (% viability x log10 dose units); higher = less sensitive
Summary of the method: (§1)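 Leukemia cells adapted to each medium were seeded in 1536-well plates (500 or 1000 cells/well). They were dosed with library compounds in DMSO at 11 threefold doses, 47 μM to 0.79 nM, for 48 h at 37°C. CellTiter-Glo One luminescence was normalised per plate to DMSO and cell-free wells. Area under the curve was integrated by trapezoidal rule over log10 doses on a four-parameter log-logistic fit; curves exceeding full viability were scaled and curves failing quality control removed.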

[2] = tested on: SEM cells; assay: as above
Summary of the method: as §1

[3] = tested on: P12-Ichikawa; assay: as above
Summary of the method: as §1

[4] = tested on: NOMO1; assay: cell viability relative to DMSO control; higher = less cytotoxic
Summary of the method: (§2)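 NOMO1 or SEM (500 cells/well) or P12-Ichikawa (1000 cells/well) leukemia cells were adapted for at least four passages in each medium. They were seeded in 1536-well plates (5 μl) and pin-dosed with library compounds in DMSO over an 11-point threefold series, 47 μM to 0.79 nM. CellTiter-Glo One luminescence was read after 48 h at 37°C. Viability is the per-plate percentage relative to DMSO wells, with cell-free wells as background.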

[5] = tested on: SEM cells; assay: as above
Summary of the method: as §2

[6] = tested on: P12-Ichikawa; assay: as above
Summary of the method: as §2

CC(=O)C\1=C(/C)C2=CN=C(NC3=CC=C(C=N3)N4CCNCC4)N=C2N(C5CCCC5)C1=O
AUC of viability dose-response curve
Conditions	[1]	[2]	[3]
HPLM + 10% dialyzed FBS	424	357	420
RPMI 5 mM glucose + 10% FBS	429	378	400
RPMI 5 mM glucose + 10% dialyzed FBS	406	365	392

cell viability [%]
Conditions	[4]	[5]	[6]
HPLM + 10% dialyzed FBS, 0.000781 µM	–	124	111
HPLM + 10% dialyzed FBS, 0.00234 µM	–	125	121
HPLM + 10% dialyzed FBS, 0.00702 µM	–	107	119
HPLM + 10% dialyzed FBS, 0.0211 µM	–	125	114
HPLM + 10% dialyzed FBS, 0.0632 µM	–	119	114
HPLM + 10% dialyzed FBS, 0.19 µM	–	109	110
HPLM + 10% dialyzed FBS, 0.569 µM	–	80.6	107
HPLM + 10% dialyzed FBS, 1.71 µM	–	68.1	93.1
HPLM + 10% dialyzed FBS, 5.12 µM	–	59.6	88.5
HPLM + 10% dialyzed FBS, 15.4 µM	–	60.8	77
HPLM + 10% dialyzed FBS, 46.1 µM	–	27.5	28.9
RPMI 5 mM glucose + 10% FBS, 0.000781 µM	123	114	119
RPMI 5 mM glucose + 10% FBS, 0.00234 µM	118	119	116
RPMI 5 mM glucose + 10% FBS, 0.00702 µM	103	133	124
RPMI 5 mM glucose + 10% FBS, 0.0211 µM	113	113	113
RPMI 5 mM glucose + 10% FBS, 0.0632 µM	136	126	113
RPMI 5 mM glucose + 10% FBS, 0.19 µM	110	126	119
RPMI 5 mM glucose + 10% FBS, 0.569 µM	105	100	98.5
RPMI 5 mM glucose + 10% FBS, 1.71 µM	96.7	80.5	78.6
RPMI 5 mM glucose + 10% FBS, 5.12 µM	98	61.6	72.6
RPMI 5 mM glucose + 10% FBS, 15.4 µM	87.1	59.9	66.6
RPMI 5 mM glucose + 10% FBS, 46.1 µM	68.8	22.2	61
RPMI 5 mM glucose + 10% dialyzed FBS, 0.000781 µM	113	125	122
RPMI 5 mM glucose + 10% dialyzed FBS, 0.00234 µM	114	107	117
RPMI 5 mM glucose + 10% dialyzed FBS, 0.00702 µM	111	130	127
RPMI 5 mM glucose + 10% dialyzed FBS, 0.0211 µM	112	122	117
RPMI 5 mM glucose + 10% dialyzed FBS, 0.0632 µM	107	127	118
RPMI 5 mM glucose + 10% dialyzed FBS, 0.19 µM	112	99.2	114
RPMI 5 mM glucose + 10% dialyzed FBS, 0.569 µM	96.3	86.8	104
RPMI 5 mM glucose + 10% dialyzed FBS, 1.71 µM	79.1	74.4	83.4
RPMI 5 mM glucose + 10% dialyzed FBS, 5.12 µM	80.9	68.5	76.9
RPMI 5 mM glucose + 10% dialyzed FBS, 15.4 µM	68.6	63.6	73
RPMI 5 mM glucose + 10% dialyzed FBS, 46.1 µM	60.1	29.2	45.6

COc1cc(O)c2c(c1)C1OC1C[C@H](O)[C@H](O)C(=O)/C=C\C[C@H](C)OC2=O (stereo not given in full)
AUC of viability dose-response curve
Conditions	[1]	[2]	[3]
HPLM + 10% dialyzed FBS	418	394	443
RPMI 5 mM glucose + 10% FBS	427	394	441
RPMI 5 mM glucose + 10% dialyzed FBS	427	384	442

cell viability [%]
Conditions	[4]	[5]	[6]
HPLM + 10% dialyzed FBS, 0.000781 µM	92.7	95.5	99.6
HPLM + 10% dialyzed FBS, 0.00234 µM	118	93.1	112
HPLM + 10% dialyzed FBS, 0.00702 µM	104	111	114
HPLM + 10% dialyzed FBS, 0.0211 µM	111	108	110
HPLM + 10% dialyzed FBS, 0.0632 µM	126	125	110
HPLM + 10% dialyzed FBS, 0.19 µM	120	125	120
HPLM + 10% dialyzed FBS, 0.569 µM	122	101	112
HPLM + 10% dialyzed FBS, 1.71 µM	125	114	112
HPLM + 10% dialyzed FBS, 5.12 µM	108	55.5	112
HPLM + 10% dialyzed FBS, 15.4 µM	31.3	31.4	81.5
HPLM + 10% dialyzed FBS, 46.1 µM	12.5	7.96	11.3
RPMI 5 mM glucose + 10% FBS, 0.000781 µM	109	101	113
RPMI 5 mM glucose + 10% FBS, 0.00234 µM	99.9	103	112
RPMI 5 mM glucose + 10% FBS, 0.00702 µM	99	108	118
RPMI 5 mM glucose + 10% FBS, 0.0211 µM	120	86.9	110
RPMI 5 mM glucose + 10% FBS, 0.0632 µM	105	114	115
RPMI 5 mM glucose + 10% FBS, 0.19 µM	96.7	108	114
RPMI 5 mM glucose + 10% FBS, 0.569 µM	121	117	116
RPMI 5 mM glucose + 10% FBS, 1.71 µM	103	101	125
RPMI 5 mM glucose + 10% FBS, 5.12 µM	97.8	58	117
RPMI 5 mM glucose + 10% FBS, 15.4 µM	50.4	30.7	80.5
RPMI 5 mM glucose + 10% FBS, 46.1 µM	13.7	4.26	13.5
RPMI 5 mM glucose + 10% dialyzed FBS, 0.000781 µM	93.5	101	96.5
RPMI 5 mM glucose + 10% dialyzed FBS, 0.00234 µM	98	119	117
RPMI 5 mM glucose + 10% dialyzed FBS, 0.00702 µM	105	117	116
RPMI 5 mM glucose + 10% dialyzed FBS, 0.0211 µM	109	127	118
RPMI 5 mM glucose + 10% dialyzed FBS, 0.0632 µM	110	109	114
RPMI 5 mM glucose + 10% dialyzed FBS, 0.19 µM	114	121	135
RPMI 5 mM glucose + 10% dialyzed FBS, 0.569 µM	113	102	124
RPMI 5 mM glucose + 10% dialyzed FBS, 1.71 µM	100	110	123
RPMI 5 mM glucose + 10% dialyzed FBS, 5.12 µM	94.7	47.6	132
RPMI 5 mM glucose + 10% dialyzed FBS, 15.4 µM	50.7	24.4	85.1
RPMI 5 mM glucose + 10% dialyzed FBS, 46.1 µM	17.5	5.3	14.3
